Data published in paper PMC4136963, “Structure-Based Design and Synthesis of Antiparasitic Pyrrolopyrimidines Targeting Pteridine Reductase 1” (Journal of Medicinal Chemistry, 2014).
Structures can show the parent of a compound that is named as a salt. Where two headings read alike, the source gives them in different places.

Legend:
T. b. brucei = experiment: microbe, parasite or virus in culture; type: cell-based, T. b. brucei (strain Lister 427)
Method: Cells were routinely diluted when reaching the mid-log-phase concentration of 2 × 10^6 cells/mL and maintained in culture for no more than 30 passages.
Compounds’ potency against trypanosomes was assessed by Alamar blue assay.[31] Cells were seeded at a final concentration of 2 × 10^4 cells/mL into serial dilutions of the test compound. After 48 h incubation at 37 °C and 5% CO2, 20 μL of resazurin dye (Sigma-Aldrich) solution at 0.49 mM was added, and cells were incubated for a further 24 h. The reduction of resazurin was measured with a fluorimeter (FLUOstar Optima, BMG Labtech) using 544 nm excitation and 590 nm emission wavelengths. Output was plotted using the IC50 determination algorithm of the GraphPad Prism 5.0 software. All experiments were carried out in duplicate and repeated on at least three independent occasions.

HEK 293T cells = experiment: cells; type: cell-based, human; details: read-out: HEK (IC50 μM)
Clearance (Cli) = type: in vitro ADME; details: footnote: Cli is the clearance in vivo
[1] = Plasma binding (fraction unbound); type: in vitro ADME; details: mouse; fraction unbound by plasma; read-out: plasma bind fu
[2] = Metabolic stability in microsomal assay (t1/2); type: in vitro ADME; details: microsomes
T. b. brucei strain 427 = details: infected mice, 30 mg/kg i.p. once daily up to 4 days; one surviving mouse per group; from ∼10^8
Method: Twenty-four hours postinfection mice were injected intraperitoneally with 30 mg/kg daily of test compound (repeated for four consecutive days), prepared in a 10% v/v DMSO, 40% v/v PEG, and 50% v/v water solution. Parasitaemia was monitored daily by tail venipuncture. Infected, untreated mice were used as control.

[3] = Trypanosoma brucei, read-out: T. b. brucei (IC50 μM) CMM, Creek's minimal medium (CMM)
[4] = Trypanosoma brucei, read-out: T. b. brucei (IC50 μM) HMI-9, HMI-9 medium
[5] = Trypanosoma brucei, read-out: T. b. brucei (IC50 μM), medium not stated
[6] = read-out: T. b. brucei (IC50 μM) CMM, Creek's minimal medium (CMM)
[7] = read-out: T. b. brucei (IC50 μM) HMI-9, HMI-9 medium
[8] = half-life of the compound, read-out: t1/2

Structure (SMILES)	IC50 (T. b. brucei; [3]) [µM]	IC50 (T. b. brucei; [4]) [µM]	IC50 (HEK 293T cells; Homo sapiens, HEK-293T) [µM]	IC50 (T. b. brucei; [5]) [µM]	also measured
CC(C)COc1nc(N)nc(N)c1C(C[N+](=O)[O-])c1ccc(F)cc1 (stereo not shown) [30a]	10.6	13.9	–	–	–
N=C(N)c1ccc(/N=N/Nc2ccc(C(=N)N)cc2)cc1 [diminazene, reference compound]	0.007	0.027	–	–	–
Nc1nc(N)c(C(C[N+](=O)[O-])c2ccc(F)cc2)c(NC2CCCCC2)n1 (stereo not shown) [30b]	0.8	0.54	32.6	–	–
N#Cc1c(-c2cccc(C=O)c2)[nH]c2nc(N)nc(N)c12 [6a]	–	–	–	6.03	–
Nc1nc(N)c(C(CCc2ccccc2)C[N+](=O)[O-])c(N)n1 (stereo not shown) [28d]	–	–	–	8.82	–
Cc1ccc(C(C[N+](=O)[O-])c2c(N)nc(N)nc2N)cc1 (stereo not shown) [28a]	–	–	32.5	0.47	–
Nc1nc2[nH]c(-c3ccc(F)cc3)c(-c3ccccc3)c2c(=O)[nH]1 [34c, 2-Amino-6-(4-fluorophenyl)-5-phenyl-3,7-dihydro-4H-pyrrolo[2,3-d]pyrimidin-4-one]	0.61	0.74	> 200	–	Cli (Clearance (Cli)): 0.17 mL/min/g; fraction unbound [1]: 0.017; IC50 (T. b. brucei; [6]): 0.614 µM; IC50 (T. b. brucei; [7]): 0.738 µM
Nc1nc2[nH]c(-c3ccccc3)c(CCc3ccccc3)c2c(=O)[nH]1 [34i]	–	–	–	–	Cli (Clearance (Cli)): 2.5 mL/min/g
Cc1ccc(C(C[N+](=O)[O-])c2c(N)nc(N)[nH]c2=O)cc1 (stereo not shown) [26a]	–	–	73.4	2.04	–
Nc1nc2[nH]c(-c3ccc(CCCN4CCOCC4)cc3)c(-c3ccccc3)c2c(=O)[nH]1 [compound 38, 2-Amino-6-{4-[3-(4-morpholinyl)propyl]phenyl}-5-phenyl-3,7-dihydro-4H-pyrrolo[2,3-d]pyrimidin-4-one trifluoroacetate]	20.1	38.1	–	–	–
Nc1nc(N)c(C(C[N+](=O)[O-])c2ccc(F)cc2)c(=O)[nH]1 (stereo not shown) [26b]	–	–	150	1.86	–
N#Cc1c[nH]c2nc(N)nc(N3CCSCC3)c12 [12d]	–	–	–	14.3	–
Nc1nc2[nH]cc(CCc3ccccc3)c2c(=O)[nH]1 [27d]	–	–	–	7620	–
Nc1nc(N)c2c(-c3ccccc3)c(-c3ccccc3)[nH]c2n1 [35a, 5,6-Diphenyl-7H-pyrrolo[2,3-d]pyrimidine-2,4-diamine]	0.58	2.25	62.9	–	Cli (Clearance (Cli)): 5.26 mL/min/g; fraction unbound [1]: 0.035; IC50 (T. b. brucei; [6]): 0.583 µM; IC50 (T. b. brucei; [7]): 2.25 µM; half-life [2, 8]: ~1.67 h; IC50 (HEK 293T cells): 62.9 µM
Nc1nc2[nH]c(-c3ccc(F)cc3)c(-c3cccc(Cl)c3)c2c(=O)[nH]1 [34l]	–	–	–	–	Cli (Clearance (Cli)): <0.5 mL/min/g
Nc1nc(N)c2c(-c3ccccc3)c(-c3ccc(F)cc3)[nH]c2n1 [35b, 6-(4-Fluorophenyl)-5-phenyl-7H-pyrrolo[2,3-d]pyrimidine-2,4-diamine]	0.08	0.32	49.2	–	Cli (Clearance (Cli)): 1.90 mL/min/g; reduction of parasitaemia (T. b. brucei strain 427): below detectable limits; fraction unbound [1]: 0.011; IC50 (T. b. brucei; [6]): 0.082 µM; IC50 (T. b. brucei; [7]): 0.321 µM; half-life [2, 8]: > 8.33 h; half-life ([2]; metabolic stability in microsomal assay, read-out: t1/2 in microsomal assay): > 8 h; IC50 (HEK 293T cells): 49.2 µM
Nc1nc2[nH]c(-c3ccccc3)c(-c3ccccc3)c2c(=O)[nH]1 [34a, 2-Amino-5,6-diphenyl-3,7-dihydro-4H-pyrrolo[2,3-d]pyrimidin-4-one]	0.41	0.64	–	–	fraction unbound [1]: 0.029; IC50 (T. b. brucei; [6]): 0.407 µM; half-life [2, 8]: ~2.17 h
Nc1nc(N2CCSCC2)c2cc[nH]c2n1 [8b]	–	–	–	80.1	–
CC(C)Oc1nc(N)nc(N)c1C(C[N+](=O)[O-])c1ccc(F)cc1 (stereo not shown) [30c, 5-[1-(4-Fluorophenyl)-2-nitroethyl]-6-isopropyloxy-2,4-pyrimidinediamine]	8.48	15.9	–	–	–
Nc1nc(N)c(C(C[N+](=O)[O-])c2ccccc2)c(N)n1 (stereo not shown) [28c, 5-(2-Nitro-1-phenylethyl)-2,4,6-pyrimidinetriamine]	–	–	35	0.13	–
CN(Cc1cnc2nc(N)nc(N)c2n1)c1ccc(C(=O)N[C@@H](CCC(=O)O)C(=O)O)cc1 [methotrexate, reference compound]	0.011	3.66	–	–	–
Nc1nc(N)c(C(C[N+](=O)[O-])c2ccccc2)c(=O)[nH]1 (stereo not shown) [26c, 2,6-diamino-5-(2-nitro-1-phenylethyl)-4(3H)-pyrimidinone]	–	–	134	1.02	–
Nc1nc(N2CCCC2)c2c(C#Cc3ccccc3)c[nH]c2n1 [compound 20, 5-(Phenylethynyl)-4-(1-pyrrolidinyl)-7H-pyrrolo[2,3-d]pyrimidin-2-amine]	–	–	–	–	Cli (Clearance (Cli)): 5.6 mL/min/g
Nc1nc(N)c2c(-c3ccc(F)cc3)c[nH]c2n1 [29b]	–	–	–	–	Cli (Clearance (Cli)): 1.7 mL/min/g
Nc1nc(N)c(C(C[N+](=O)[O-])c2ccc(F)cc2)c(N)n1 (stereo not shown) [28b]	–	–	39.1	0.16	–
N#Cc1c[nH]c2nc(N)nc(N)c12 [compound 4, 2,4-diamino-7H-pyrrolo[2,3-d]pyrimidine-5-carbonitrile]	–	–	–	2440	–
